In brackets after ≈: the same amount, converted by molar mass. Like-named read-outs stand apart in the source and are kept apart here.
Experiments:
[1] = tested on: bacterial LPS derived from E. coli 0111:B4; experiment: LPS neutralization, Limulus amebocyte lysate (LAL) assay; assay type: biochemical; settings: 1 ng LPS
Protocol: FIG. 1 depicts the mean (±S.E.) percent neutralization of bacterial LPS bioactivity as determined with the Limulus amebocyte lysate assay. Increasing concentrations of peptides or polymixin B were incubated with 1 ng of E. coli-derived LPS for 30 min. Following incubation, the amount of free LPS was determined by extrapolation from a standard curve and the percent of bound (neutralized) LPS was calculated.
The ability of the peptides to neutralize LPS was determined using a commercially available Limulus amebocyte lysate (LAL) assay (Cambrex BioScience Walkersville, Inc., Walkersville, Md.). As a positive control, polymyxin B (Sigma Chemical Co.) was evaluated in parallel with the peptides. Increasing concentrations of peptides or polymyxin B were incubated with 1 ng of highly purified bacterial LPS (Sigma Chemical Co.), derived from E. coli 0111:B4, in a 500 μl reaction volume of endotoxin-free water for 30 min at 37° C. while shaking at 100 rpm. Following the incubation, the amount of free LPS was determined in each sample according to the manufacturer's instructions. Briefly, 50 μl of the above mixture was placed into a 96-well microtiter plate and the reaction initiated by the addition of an equal volume of amoebocyte lysate. Following an incubation at 37° C. for 10 min, 100 μl of chromogenic substrate was added and the plate incubated for 5-10 min at 37° C. The reaction was stopped by the addition of 50 μl of glacial acetic acid and the absorbance measured at a wavelength of 405 nm on a microplate reader (Biotec Instruments, Inc., Winooski, Vt.). The amount of non-bound LPS was extrapolated from a standard curve and the percent inhibition calculated according to the following formula: […]
To determine whether the bBPI peptides were able to neutralize LPS, increasing concentrations of the peptides were incubated with LPS (1 ng) and the resulting mixture assayed with the LAL assay (FIG. 1). As a positive and negative control, respectively, polymyxin B and a non-BPI-derived peptide were also assayed. […] In contrast, bBPI142-169 and bBPI90-99,148-161 were able to neutralize ≧93% of LPS activity at peptide concentrations of 30 and 100 μg/ml, respectively.

[2] = tested on: Enterobacter cloacae; experiment: microbe, parasite or virus in culture; assay type: cell-based
Source text: (§1) Bacterial isolates of Escherichia coli, Klebsiella pneumonia, Serratia marcescens, Pseudomonas aeruginosa, Enterobacter cloacae, and Enterobacter aerogenes, which were obtained from clinical cases of bovine mastitis, were used to assess the bactericidal activity of peptides in a broth microdilution assay. Isolates were obtained from repositories at Cornell University (gift of Dr. Y. H. Schukken; Quality Milk Production Services Program, Cornell University, Ithaca N.Y.) and the USDA Beltsville Agricultural Research Center. […] A. J. Bramley, Institute for Animal Health, Compton Laboratory, Newbury, England), which was originally isolated from a clinical case of mastitis ([…]. Dairy Res. 43: 205-211) was also used to assess the bactericidal activity of the peptides in biological fluids. Reference strains of E. coli (ATCC 25922) and Staphylococcus aureus (ATCC 29213) were obtained from a commercial source (American Type Culture Collection (ATCC), Manassas, Va.). To obtain fresh inoculums for evaluation, a sterile loop of each bacterial glycerol stock was streaked on a blood agar plate. After an overnight incubation at 35° C., a single uniform colony was picked and sub-passaged by streaking on a new blood agar plate and incubating the plate overnight at 35° C. To evaluate the antimicrobial activity of the peptides against various clinical mastitis bacterial isolates, the minimum inhibitory concentration (MIC) and the minimum bactericidal concentration (MBC) of these peptides against the isolates were determined using a standardized broth microdilution assay. In addition to the mastitis isolates, E. coli (ATCC 25922) and S. aureus (ATCC 29213) reference strains were evaluated. […] The assays were performed in accordance with Clinical and Laboratory Standards Institute (CLSI) [formerly National Committee for Clinical Laboratory Standards (NCCLS)] guidelines (National Committee for Clinical Laboratory Standards. 1999. Methods for Determining Bacterial Activity of Antimicrobial Agents: Approved Guideline. Wayne, Pa.; National Committee for Clinical Laboratory Standards. 2002. Performance Standards for Antimicrobial Disk and Dilution Susceptibility Tests for Bacteria Isolated from Animals: Approved Standard. 2nd Edition, Wayne, Pa.). […] The bacterial suspension was then diluted 100-fold in cation-adjusted Mueller-Hinton broth to reach a final inoculum concentration of 10^6 CFU/ml. […] A negative control column was included in the plate that included 100 μl of broth alone. The plates were incubated for 18 h at 35° C. with ambient air circulation and without shaking. The wells were subsequently inspected for cloudiness and pellet formation using a magnifying glass plate reader. The lowest concentration at which no pellet or cloudiness was apparent in a given well was identified as the MIC. […] The plates were incubated overnight at 35° C. and colonies subsequently enumerated. The MBC values were determined as the lowest concentration at which ≧99.9% of inoculated bacteria were killed. All assays were performed in triplicate and the MIC and MBC range reported.

[3] = tested on: Klebsiella pneumoniae; experiment: microbe, parasite or virus in culture; assay type: cell-based; settings: Klebsiella pneumoniae, read-out: MIC
Source text: as §1

[4] = tested on: Staphylococcus aureus; experiment: microbe, parasite or virus in culture; assay type: cell-based; settings: ATCC29213; Staphylococcus aureus ATCC 29213; read-out: MIC
Source text: as §1

[5] = tested on: Escherichia coli; experiment: microbe, parasite or virus in culture; assay type: cell-based; settings: Escherichia coli; for MIC: read-out: MIC
Source text: as §1

[6] = tested on: Serratia marcescens; experiment: microbe, parasite or virus in culture; assay type: cell-based; settings: Serratia marcescens, read-out: MIC
Source text: as §1

[7] = tested on: Pseudomonas aeruginosa; experiment: microbe, parasite or virus in culture; assay type: cell-based; settings: Pseudomonas aeruginosa, read-out: MIC
Source text: as §1

Molecule: polymyxin B [reference compound]
- inhibition of LPS activity (in words) ([1]; increasing concentrations): inhibited LPS activity in dose-dependent manner

Molecule: MCHWAGGASNTGDARGDV FGKQAG (MCHWAGGASNTGDARGDVFGKQAG; listed as Bos sp.) [control peptide, non-BPI-derived control peptide provided by the peptide synthesis company; negative control, reference compound]
- inhibition of LPS activity ([1]; 100 μg/ml, 30 min): no inhibitory effect

Molecule: CN(C)[C@@H]1C(O)=C(C(N)=O)C(=O)[C@@]2(O)C(O)=C3C(=O)c4c(O)cccc4[C@@](C)(O)[C@H]3C[C@@H]12 [Tetracycline, reference compound]
- MIC ([2]; Enterobacter cloacae Isolate #2, read-out: MIC): 4 µg/mL (≈ 9 µM)
- MIC ([2]; Enterobacter cloacae Isolate #4): 4 µg/mL (≈ 9 µM)
- MIC ([3]; Klebsiella pneumoniae Isolate #1): 64 µg/mL (≈ 144 µM)
- MIC ([3]; Klebsiella pneumoniae Isolate #3): 1 µg/mL (≈ 2.25 µM)
- MIC ([3]; Klebsiella pneumoniae Isolate #4): 64 µg/mL (≈ 144 µM)
- MIC ([3]; Klebsiella pneumoniae Isolate #5): 16 µg/mL (≈ 36 µM)
- MIC ([3]; Klebsiella pneumoniae Isolate #6): 0.5 µg/mL (≈ 1.13 µM)
- MIC [4]: 0.25 to 0.5 µg/mL (≈ 0.563 to 1.13 µM)
- MBC ([5]; ATCC25922, Escherichia coli ATCC 25922, read-out: MBC): 64 µg/mL (≈ 144 µM)
- MIC ([5]; ATCC25922, Escherichia coli ATCC 25922): 0.5 to 1 µg/mL (≈ 1.13 to 2.25 µM)
- MIC ([5]; Escherichia coli Isolate #1): 4 µg/mL (≈ 9 µM)
- MIC ([5]; Escherichia coli Isolate #2): 4 µg/mL (≈ 9 µM)
- MIC ([5]; Escherichia coli Isolate #3): 4 µg/mL (≈ 9 µM)
- MIC ([5]; Escherichia coli Isolate #4): 4 µg/mL (≈ 9 µM)
- MIC ([5]; Escherichia coli Isolate #5): 4 µg/mL (≈ 9 µM)
- MIC ([5]; Escherichia coli Strain P4): 1 µg/mL (≈ 2.25 µM)
- MIC ([6]; Serratia marcescens Isolate #1): 32 µg/mL (≈ 72 µM)
- MIC ([6]; Serratia marcescens Isolate #2): 64 µg/mL (≈ 144 µM)
- MIC ([6]; Serratia marcescens Isolate #3): 64 µg/mL (≈ 144 µM)
- MIC ([6]; Serratia marcescens Isolate #4): 64 µg/mL (≈ 144 µM)
- MIC ([6]; Serratia marcescens Isolate #5): 64 µg/mL (≈ 144 µM)
- MIC ([6]; Serratia marcescens Isolate #6): 64 µg/mL (≈ 144 µM)
- MIC ([7]; Pseudomonas aeruginosa Isolate #1): 32 µg/mL (≈ 72 µM)
- MIC ([7]; Pseudomonas aeruginosa Isolate #2): 16 µg/mL (≈ 36 µM)
- MIC ([7]; Pseudomonas aeruginosa Isolate #3): 32 µg/mL (≈ 72 µM)
- MIC ([7]; Pseudomonas aeruginosa Isolate #4): 16 µg/mL (≈ 36 µM)
- MIC ([7]; Pseudomonas aeruginosa Isolate #5): 32 µg/mL (≈ 72 µM)
- MIC ([7]; Pseudomonas aeruginosa Isolate #6): 16 µg/mL (≈ 36 µM)
